Structures are written as SMILES. Converted amounts (≈) assume the structure as drawn.

This assay has as its system Mycobacterium tuberculosis. The assay can be described thus: Antimycobacterial activity against multidrug-resistant Mycobacterium tuberculosis assessed as growth inhibition at 0.3125 to 5 ug/mL by resazurin assay. Format: functional.
Regarding `N#Cc1cccc(S(=O)(=O)n2c(COc3ccc([N+](=O)[O-])cc3)nc3ccc(Br)cc32)c1`, the MIC was above 50 µg/mL. For `O=[N+]([O-])c1ccc(OCc2nc3ccc(Br)cc3n2S(=O)(=O)c2cc(F)ccc2F)cc1`, the MIC was above 50 µg/mL. With `CO[C@H]1/C=C/O[C@@]2(C)Oc3c(C)c(O)c4c(O)c(c(/C=N/N5CCN(C)CC5)c(O)c4c3C2=O)NC(=O)/C(C)=C\C=C\[C@H](C)[C@H](O)[C@@H](C)[C@@H](O)[C@@H](C)[C@H](OC(C)=O)[C@@H]1C` [RIFAMPIN] the figure was 25 µg/mL (≈ 30.4 µM). With `Nc1ccc(OCc2nc3cc(Br)ccc3[nH]2)cc1` the figure was 25 µg/mL (≈ 78.6 µM); with `O=[N+]([O-])c1ccc(OCc2nc3cc(Br)ccc3n2S(=O)(=O)c2cc(F)ccc2F)cc1`, 6.25 µg/mL (≈ 11.9 µM); with `Cc1c(F)cccc1S(=O)(=O)n1c(COc2ccc([N+](=O)[O-])cc2)nc2cc(Br)ccc21`, above 50 µg/mL.

Turning to `O=[N+]([O-])c1ccc(OCc2nc3cc(Br)ccc3n2S(=O)(=O)c2cc(Cl)ccc2Cl)cc1`, the minimal inhibitory concentration (MIC) was above 50 µg/mL.

On to `COc1ccc(OC)c(S(=O)(=O)n2c(COc3ccc([N+](=O)[O-])cc3)nc3cc(Br)ccc32)c1`, for which the MIC was above 50 µg/mL. With `O=[N+]([O-])c1ccc(OCc2nc3ccc(Br)cc3n2S(=O)(=O)c2ccccc2[N+](=O)[O-])cc1` the figure was above 50 µg/mL.

With `N#Cc1cccc(S(=O)(=O)n2c(COc3ccc([N+](=O)[O-])cc3)nc3cc(Br)ccc32)c1`, the MIC was above 50 µg/mL. `Cc1cccc(S(=O)(=O)n2c(COc3ccc([N+](=O)[O-])cc3)nc3ccc(Br)cc32)c1`: the MIC is above 50 µg/mL. The value for `O=[N+]([O-])c1ccc(OCc2nc3cc(Br)ccc3n2S(=O)(=O)c2ccccc2[N+](=O)[O-])cc1` was 6.25 µg/mL (≈ 11.7 µM); that for `Cc1cccc(S(=O)(=O)n2c(COc3ccc([N+](=O)[O-])cc3)nc3cc(Br)ccc32)c1` was above 50 µg/mL. Regarding `NNC(=O)c1ccncc1` [ISONIAZID], the MIC is 12.5 µg/mL (≈ 91.1 µM). As for `O=[N+]([O-])c1ccc(OCc2nc3cc(Br)ccc3n2S(=O)(=O)c2ccccc2Cl)cc1`, the MIC amounted to 6.25 µg/mL (≈ 12 µM). For the molecule `COc1ccc(OC)c(S(=O)(=O)n2c(COc3ccc([N+](=O)[O-])cc3)nc3ccc(Br)cc32)c1`, the MIC worked out at 25 µg/mL (≈ 45.6 µM). `O=[N+]([O-])c1ccc(OCc2nc3ccc(Br)cc3n2S(=O)(=O)c2cc(Cl)ccc2Cl)cc1`: the minimum inhibitory concentration (MIC) is above 50 µg/mL. With `COc1ccc(S(=O)(=O)n2c(COc3ccc([N+](=O)[O-])cc3)nc3ccc(Br)cc32)c(OC)c1` the figure was 2.5 µg/mL (≈ 4.56 µM); with `O=[N+]([O-])c1ccc(OCc2nc3cc(Br)ccc3n2S(=O)(=O)c2ccc(Cl)cc2Cl)cc1`, above 50 µg/mL. With `COc1ccc(S(=O)(=O)n2c(COc3ccc([N+](=O)[O-])cc3)nc3cc(Br)ccc32)c(OC)c1` the figure was above 50 µg/mL; with `Cc1c(F)cccc1S(=O)(=O)n1c(COc2ccc([N+](=O)[O-])cc2)nc2ccc(Br)cc21`, above 50 µg/mL.

The values are drawn from ChEMBL document CHEMBL2417425, “Design and synthesis of positional isomers of 5 and 6-bromo-1-[(phenyl)sulfonyl]-2-[(4-nitrophenoxy)methyl]-1H-benzimidazoles as possible antimicrobial and antitubercular agents” (2013).
